Laboratory results: US20060276485A1, “Substituted piperidine and piperazine derivatives as melanocortin-4 receptor modulators” (priority 2003, published 2006)
“Also recorded” adds a separate entry of the source. Read-outs that look alike come from different tables or passages of the source.

How the values were obtained:
[1] = target: T1, human melanocortin-4 receptor (hMC4-R) (Homo sapiens, UniProt P32245); assay: Membrane binding assay: competition with fluorescence labeled NDP-alpha-MSH, fluorescence polarization
T1 construct: expressed in transfected cells; host or cells: HEK293 cells
T1 sequence (P32245 whole entry): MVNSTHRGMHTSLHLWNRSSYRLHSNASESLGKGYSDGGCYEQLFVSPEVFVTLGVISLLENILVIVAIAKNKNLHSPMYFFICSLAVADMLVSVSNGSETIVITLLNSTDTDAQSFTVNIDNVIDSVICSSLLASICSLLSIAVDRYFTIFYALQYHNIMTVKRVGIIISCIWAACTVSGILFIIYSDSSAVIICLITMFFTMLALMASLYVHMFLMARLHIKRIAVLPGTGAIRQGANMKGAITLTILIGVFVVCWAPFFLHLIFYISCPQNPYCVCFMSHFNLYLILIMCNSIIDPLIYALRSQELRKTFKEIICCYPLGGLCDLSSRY
Procedure: A membrane binding assay is used to identify competitive inhibitors of fluorescence labeled NDP-alpha-MSH binding to HEK293 cell membrane preparations expressing human melanocortin receptors.
The test compound or unlabeled NDP-alpha-MSH is dispensed at varying concentrations to a 384 well microtiter plate. Fluorescence labeled NDP-alpha-MSH is dispensed at a single concentration, followed by addition of membrane preparations. The plate is incubated for 5 h at room temperature.
The degree of fluorescence polarization is determined with a fluorescence polarization microplate reader.

[2] = Spontaneous feeding paradigm: food intake in rats; type: in vivo, male Wistar rats; conditions: for increase in cumulative food intake: compared to vehicle; for activity in the spontaneous feeding paradigm: significant increase in food intake at dose of 3 to 30 mg/kg p.o.
Procedure: Food intake in rats is measured after i.p. or p.o. administration of the test compound (see e.g. Chen, A. S. et al. Transgenic Res 2000 April 9(2):145-54).
Selected Examples of the present invention were active in the rat model at 3, 10 or 30 mg/kg after i.p. and p.o. administration of the test compound, respectively, using male Wistar rats (n=4).

[3] = target: T1, human melanocortin-4 receptor (hMC4-R); assay: Functional cellular cAMP assay in HEK293 cells, fluorescence polarization; type: cell-based
Procedure: A functional cellular assay, based on competition between unlabeled CAMP and a fixed quantity of fluorescence labeled CAMP for a limited number of binding sites on a CAMP specific antibody, is used to discriminate melanocortin receptor agonists from antagonists by fluorescence polarization.
HEK293 cells expressing one of the human melanocortin receptors are transferred to 384 well microtiter plates, an appropriate amount of CAMP antibody is added, followed by the addition of different concentrations of the test compound to effect cAMP production. Cells are lysed and a fluorescence labeled cAMP conjugate is dispensed. The plate is read on a fluorescence polarization microplate reader and the amount of cAMP produced as a response to a test compound is compared to the production of CAMP resulting from stimulation with NDP-alpha-MSH. […]

melanocortin-4 receptor [4] = target: T2, melanocortin-4 receptor (Homo sapiens, UniProt P32245); conditions: J. Med. Chem. 2004, 47, 744-755; read-out: melanocortin-4 receptor binding Ki; cited from earlier work
T2 sequence (P32245 whole entry): as above

melanocortin-4 receptor [5] = target: T2, melanocortin-4 receptor; conditions: cited from earlier work; for EC50: read-out: melanocortin-4 receptor activation EC50
[6] = Bioorg. Med. Chem. Lett. 2003, 13, 3793-3796

Question: Which results are given for O=C(N[C@@H](Cc1ccc(Cl)cc1)C(=O)N1CCC(c2ccccc2CN2CCCC2=O)CC1)c1cc(=O)c2ccccc2o1 [Example 1]?
Answer: IC50 [1]: 200 nM; increase in cumulative food intake ([2]; 30 mg/kg p.o., 4 hours following administration): 159%; increase in cumulative food intake ([2]; 30 mg/kg p.o., 6 hours following administration): 131%; increase in cumulative food intake ([2]; 30 mg/kg p.o., 7 hours following administration): 148%; activity in the spontaneous feeding paradigm [2]: active; % activation functional assay ([3]; relative to NDP-alpha-MSH): does not activate; also recorded: no activation

Question: Which “increase in cumulative food intake” value ([2]; 10 mg/kg p.o., 2 hours following administration) does the source give for COc1ccc2oc(C(=O)N[C@@H](Cc3ccc(Cl)cc3)C(=O)N3CCC(c4ccccc4CN4CCCC4=O)CC3)cc(=O)c2c1 [Example 17] here?
Answer: 3100%

Question: What about the “increase in cumulative food intake” value ([2]; 10 mg/kg p.o., 4 hours following administration) of the same compound?
Answer: 540%

Question: And the “activity in the spontaneous feeding paradigm” value [2]?
Answer: active

Question: For O=C(N[C@H](Cc1ccc2ccccc2c1)C(=O)N1CCC(c2ccccc2CN2CCCC2=O)CC1)c1cc(=O)c2ccccc2o1 [Example 91], which IC50 [1] is on record?
Answer: 120 nM

Question: And the “% activation functional assay” value ([3]; relative to NDP-alpha-MSH)?
Answer: does not activate; also recorded: no activation

Question: Which results are given for O=C(N[C@@H](Cc1ccc(Cl)cc1)C(=O)N1CCC(c2ccccc2CN2CCCCC2=O)CC1)c1cc(=O)c2ccccc2o1 [Example 92]?
Answer: IC50 [1]: 200 nM; % activation functional assay ([3]; relative to NDP-alpha-MSH): does not activate; also recorded: no activation

Question: What does the source list for O=C(N[C@H](Cc1ccc(Cl)cc1)C(=O)N1CCC(c2ccccc2CN2CCCCC2=O)CC1)c1cc(=O)c2ccccc2o1 [Example 93]?
Answer: IC50 [1]: 51 nM; % activation functional assay ([3]; relative to NDP-alpha-MSH): does not activate; also recorded: no activation

Question: Which IC50 [1] does the source give for O=C(N[C@H](Cc1ccc(Cl)cc1)C(=O)N1CCC(c2ccccc2CN2CCC2=O)CC1)c1cc(=O)c2ccccc2o1 [Example 178] here?
Answer: 200 nM

Question: And the “% activation functional assay” value ([3]; relative to NDP-alpha-MSH)?
Answer: does not activate; also recorded: no activation

Question: Which results are given for O=C(N[C@@H](Cc1ccc(Cl)cc1)C(=O)N1CCC(c2ccccc2CN2CCCCCC2=O)CC1)c1cc(=O)c2ccccc2o1 [Example 179]?
Answer: IC50 [1]: 500 nM; % activation functional assay ([3]; relative to NDP-alpha-MSH): does not activate; also recorded: no activation

Question: With O=C(N[C@H](Cc1ccc(Cl)cc1)C(=O)N1CCC(c2ccccc2CN2CCCCCC2=O)CC1)c1cc(=O)c2ccccc2o1 [Example 180] as the compound, how does the IC50 [1] read?
Answer: 47 nM

Question: What about the “% activation functional assay” value ([3]; relative to NDP-alpha-MSH) of the same compound?
Answer: does not activate; also recorded: no activation

Question: What does the source list for O=C(N[C@@H](Cc1ccc(Cl)cc1)C(=O)N1CCN(c2ccccc2CN2CCCC2=O)CC1)c1cc(=O)c2ccccc2o1 [Example 181]?
Answer: IC50 [1]: 770 nM; % activation functional assay ([3]; relative to NDP-alpha-MSH): does not activate; also recorded: no activation

Question: With O=C(N[C@H](Cc1ccc(Cl)cc1)C(=O)N1CCN(c2ccccc2CN2CCCC2=O)CC1)c1cc(=O)c2ccccc2o1 [Example 182] as the compound, how does the IC50 [1] read?
Answer: 61 nM

Question: And the “increase in cumulative food intake” value ([2]; 3 mg/kg p.o., 2 hours following administration)?
Answer: 273%

Question: And the “increase in cumulative food intake” value ([2]; 3 mg/kg p.o., 4 hours following administration)?
Answer: 204%

Question: What about the “increase in cumulative food intake” value ([2]; 3 mg/kg p.o., 6 hours following administration) of the same compound?
Answer: 156%

Question: What about the “increase in cumulative food intake” value ([2]; 3 mg/kg p.o., 7 hours following administration) of the same compound?
Answer: 197%

Question: And the “activity in the spontaneous feeding paradigm” value [2]?
Answer: active

Question: What about the “% activation functional assay” value ([3]; at 10 μM) of the same compound?
Answer: 15%@10 μM

Question: What about the “% activation functional assay” value ([3]; at 10 μM, listed as example 182) of the same compound?
Answer: little or no activation

Question: What does the source list for O=C(N[C@H](Cc1ccc2ccccc2c1)C(=O)N1CCN(c2ccccc2CN2CCCC2=O)CC1)c1cc(=O)c2ccccc2o1 [Example 267]?
Answer: IC50 [1]: 100 nM; % activation functional assay ([3]; relative to NDP-alpha-MSH): does not activate; also recorded: no activation

Question: With CS(=O)(=O)Nc1ccccc1N1CCN(C(=O)[C@@H](Cc2ccc(Cl)cc2)NC(=O)[C@H]2Cc3ccccc3CN2)CC1 [WO03009850 (example 1)] as the compound, how does the IC50 [1] read?
Answer: 500 nM

Question: What about the EC50 [3] of the same compound?
Answer: 3700 nM

Question: And the “% activation functional assay” value ([3]; relative to NDP-alpha-MSH)?
Answer: 96%

Question: What about the Ki (melanocortin-4 receptor [4]) of the same compound?
Answer: 220 nM

Question: What about the “stimulation of melanocortin-4 receptor” value (melanocortin-4 receptor [5]; [6]) of the same compound?
Answer: 100%

Question: What about the EC50 (melanocortin-4 receptor [5]; [6]) of the same compound?
Answer: 380 nM

Question: What about the EC50 (melanocortin-4 receptor [5]; J. Med. Chem. 2004, 47, 744-755) of the same compound?
Answer: 16 nM

Question: Which IC50 [1] does the source give for O=C(N[C@H](Cc1ccc(Cl)cc1)C(=O)N1CCC(c2ccccc2CN2CCCC2=O)CC1)c1cc(=O)c2ccccc2o1 [example 2] here?
Answer: 36 nM

Question: And the EC50 [3]?
Answer: 5700 nM

Question: And the “% activation functional assay” value ([3]; relative to NDP-alpha-MSH)?
Answer: 43%
